Test results reported in patent publication US12397059B2, “Compounds and methods for the treatment and prevention of fibrotic disease states and cancer” (Purdue Research Foundation, priority 2019, dated 2025).

Experiments:
[1] = tested on: M2-induced THP-1 macrophages; test: Secreted CCL18 and IL-1β in THP-1 supernatants by ELISA; assay type: cell-based, human; details: THP-1 cells of FIGS. 14A-14C, low concentration range (0.1-10 nM)
[2] = tested on: THP-1 cells polarized to M2-like macrophages; test: Reprogramming of M2-like THP-1 macrophages, marker gene analysis by qPCR; assay type: cell-based, human; details: M2-induced THP-1, 2 hours, qPCR
Protocol: THP-1 cells were seeded into 96-well plates at a density of 60,000 cells/well. Cells were differentiated into unpolarized macrophages by 48 hours incubation with 200 nM PMA followed by 24 hours incubation in fresh RPMI medium. […] Cultures were maintained at 37° C. in a humidified 5% CO2 incubator.
Total RNA was isolated from 1×10^5 —2×10^5 macrophages using a Quick-RNA™ MicroPrep kit (Zymo Research, Irvine, CA) according to the manufacturer-recommended protocol. […] IL-6, CXCL10, IFNα, IFN-γ and CD86 were used as markers for an M1 phenotype, while CCL18, CD206, CD163 and Arg1 were employed as markers for the M2 phenotype. IL-1β, PDGFβ, MMP9 and TIMP 3 were measured as indicators of a profibrotic phenotype. IRAK-4 was used as an indicator of TLR7 stimulation. To control for specificity of the amplification products, a melting curve analysis was performed. […] Each sample was analyzed independently in triplicate for each marker.
Primarily, human monocytic (THP-1) cells were induced to the M2-like phenotype using the methods and materials previously described. In particular, THP-1 cells were seeded into 96-well plates at a density of 60,000 cells/well. Cells were differentiated into unpolarized macrophages by 48 h incubation with 200 nM PMA followed by 24 hours incubation in fresh RPMI medium. The resulting macrophages were polarized to an M2-like phenotype by incubation with 20 ng/ml IL-4, 20 ng/ml IL-13, and 5 ng/mL IL-6 for 48 h. Cultures were maintained at 37° C. in a humidified 5% CO2 incubator.
In addition to the nonconjugated TLR7 agonist, conjugated compounds of the present disclosure were likewise evaluated. […] The cells were subsequently harvested for gene analysis by qPCR and the relative expression of CCL18 (FIG. 14A), CD206 (FIG. 14B), and IL-1β (FIG. 14C) analyzed.

[3] = tested on: BM-induced experimental pulmonary fibrosis in mice; details: mouse, in vivo
Protocol: Studies were also performed to determine if macrophages in pulmonary fibrotic lungs might be specifically targeted with folate-linked drugs in vivo. […] (The BM model is widely regarded to be helpful in terms of enabling mechanistic investigations relevant to fibrogenesis in an in vivo context.)
More specifically, eight-week-old C57BL6 male mice from Charles River (average weight 22 g to 25 g) were housed under pathogen-free conditions at room temperature (22° C.) under a 12 hours light-dark cycle. Mice were placed on a folate deficient chow (Envigo Teklad Global Rat Food Pellets) for 1 week prior to the BM or PBS instillation. Fresh water and folate-deficient diet were freely available. All animal procedures were approved by the Purdue Animal Care and Use Committee in accordance with National Institute of Health guidelines.
Thereafter, the mice were anesthetized with ketamine/xylazine and the necks of the mice were shaved using hair remover lotion and then sterilized with 70% alcohol. A small incision was made on the neck to visualize the trachea. Mice were positioned at a 75-degree angle and injected intratracheally with 100 μL sterile PBS or BM (Cayman Chemicals, Ann Arbor, MI; #13877) dissolved in PBS (0.75 mg/kg) using a 1 cc syringe with 26 G needle. Body weights were monitored every other day throughout the experiment.
Lobes of the right lung collected above were weighed, placed in a pressure-tight vial (Supelco Inc., Bellefonte, PA; #27003), and hydrolyzed with 6N HCl (10 ml/g, v/w) in a sand bath at 120° C. for 3.5 hours. The hydrolyzed solution was cooled at 4° C. for 15 min and transferred to a 1.5 ml Eppendorf tube prior to centrifugation at 12,000 rcf for 15 min at 4° C. Supernatant was carefully collected, aliquoted and used for hydroxyproline (HYP) analysis.
For the subsequent HYP analysis, 10 μl of sample was transferred into a 96-well plate and neutralized with 10 μl of 5.3 M sodium hydroxide solution. Isopropanol (40 μl) was then added to each well followed by 20 μl of oxidation buffer and the mixture was incubated on a shaker at room temperature for 5 min. Analytical reagent (260 μl) was added, and the plate was incubated on a shaker at room temperature for 30 seconds and incubated immediately at 60° C. for 25 min. The absorbance was measured at 560 nm (A560) within 15 min. All reagents were prepared according to a previously reported protocol.
For histological analysis of the lung sections, fixed lungs (see above) were embedded in paraffin, sectioned and stained with hematoxylin-eosin (H&E), Masson's trichrome or F3 (anti-mouse FRβ antibody). Tissue sections were examined in a blinded manner by a licensed pathologist. More than 90×10^6 cells were quantified per section using Aperio-Image Scope (Leica Biosystems, Wetzlar, DE).
For this, BM-treated mice were intravenously injected every other day beginning on day 10 with either vehicle (3% DMSO in PBS) or Compound 1B (see FIG. 8A). […] In BM-induced experimental pulmonary fibrosis in mice, inflammation is known to persist for about 9-10 days after BM installation. Because, inflammation to fibrosis switch happens in this model approximately day 9 to day 14, and profibrotic markers start appearing at about day 10, dosing began on day 10 (FIG. 8A).
Two doses were given every other day till day 21. The individual doses on a day are separated by 6 hours to prevent any “tolerance” to TLR agonists. Mice were then sacrificed on day 21 and subjected immediately to bronchoalveolar lavage followed by resection of the lungs for immunohistochemistry and quantitation of collagen and hydroxyproline.

FRβ = biological target: T1, FRβ (Mus musculus, UniProt Q05685); details: in vivo
T1 construct: from tissue; host or cells: major organs (heart, lung, spleen, liver, small intestine, large intestine, kidney) of bleomycin- or PBS-treated C57BL/6 mice; FRβ-expressing lung macrophages
T1 sequence (Q05685 21-227): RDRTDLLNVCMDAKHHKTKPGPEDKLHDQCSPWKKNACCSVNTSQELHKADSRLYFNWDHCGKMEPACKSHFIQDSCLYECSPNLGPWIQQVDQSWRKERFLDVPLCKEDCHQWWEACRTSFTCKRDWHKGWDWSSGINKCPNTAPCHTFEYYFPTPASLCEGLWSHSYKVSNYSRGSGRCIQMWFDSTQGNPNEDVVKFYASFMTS
Protocol: FIGS. 7C and 7D show FRβ IHC staining of human IPF lung tissue (FIG. 7C) and healthy human lung tissue (FIG. 7D). […] After 2 hours, mice were sacrificed prior to analysis.

FRβ positive macrophages = details: mouse, in vivo
Protocol: To evaluate if profibrotic lung macrophages in these mice can be specifically targeted with folate-linked drugs, 10 days after the instillation, 10 nmol (for in vivo imaging) or 100 nmol (for in vivo labeling) of a folate-linked, near infrared fluorescent dye (OTL38) with or without 200-fold excess of FA-glucosamine (a competitor of OTL38) was injected into the tail veins of BM-treated mice and the dye uptake in the major organs was evaluated.
Finally, for the in vivo folate imaging studies, major organs (heart, lung, spleen, liver, small intestine, large intestine, and kidney) were resected and imaged using an AMI live imager (Spectral Instruments Imaging, Tucson, AZ). For in vivo folate receptor labeling studies, lungs of the mice were harvested immediately following euthanasia, digested with a lung dissociation kit (Miltenyi Biotec, Bergisch Gladbach, DE; #130-098-427) as described by gentleMACS Octo Dissociator with Heathers (Miltenyi Biotec, Bergisch Gladbach, DE; #130-096-427) as described by manual and filtered through a 70 μm cell strainer (Miltenyi Biotec, Bergisch Gladbach, DE; #130-098-462). […] Labeled macrophages were then washed twice in PBS, stained with 7AAD (viability stain) for 15 min and analyzed by flow cytometry using BD Accuri C6 Software (BD Biosciences, San Jose, CA). […]

| Molecule | secretion of CCL18 protein [1] | CCL18 relative expression [2] | CD206 relative expression [2] | IL-1β relative expression [2] | effectiveness in reducing profibrotic markers relative to the other compounds [2] | further results |
| --- | --- | --- | --- | --- | --- | --- |
| Nc1nc(C(F)(F)F)cc2c1[nH]c(=O)n2Cc1ccc(NCCN2CCCC(CO)C2)nc1 (centres unmarked) [Compound 3A] | downregulated |  |  |  |  |  |
| Nc1nc2ncc(CNc3ccc(C(=O)N[C@@H](CCC(=O)NCCOCCOCCOCCOCC4CCCN(CCNc5ccc(Cn6c(=O)[nH]c7c(N)nc(C(F)(F)F)cc76)cn5)C4)C(=O)O)cc3)nc2c(=O)[nH]1 (some centres unmarked) [Compound 3D] | downregulated | reduced | reduced | reduced | most effective relative to the other compounds |  |
| Nc1nc2ncc(CNc3ccc(C(=O)N[C@@H](CCC(=O)NCCOCCOCCOCCOCCOCCOCCOCCOCCOCCOCCOCCOCCOCC4CCCN(CCNc5ccc(Cn6c(=O)[nH]c7c(N)nc(C(F)(F)F)cc76)cn5)C4)C(=O)O)cc3)nc2c(=O)[nH]1 (some centres unmarked) [Compound 3C] | downregulated | reduced | reduced | reduced | most effective relative to the other compounds | benefit to the subject mice [3]: did not show measurable benefit; hydroxyproline (HP) [3]: decreasing; number of BALF cells [3]: decreasing; survival rates [3]: increased the survival rates |
| OTL38 |  |  |  |  |  | OTL38 fluorescence in organs of healthy mice (FRβ): only observed in the kidneys; lung accumulation with 200-fold excess folate-glucosamine (FRβ): nearly quantitative blockade of lung accumulation; folate-dye retention with 200-fold excess folate-glucosamine (FRβ positive macrophages): blocked essentially all folate-dye retention |
| Nc1nc2ncc(CNc3ccc(C(=O)NC(CCC(=O)N[C@@H](CSSCCOC(=O)OCC4CCCN(CCNc5ccc(Cn6c(=O)[nH]c7c(N)nc(C(F)(F)F)cc76)cn5)C4)C(=O)O)C(=O)O)cc3)nc2c(=O)[nH]1 (some centres unmarked) [Compound 3B] | downregulated | reduced | reduced | reduced |  |  |
| CCCCc1nc2c(N)nc3ccccc3c2n1CC(C)(C)O [Compound 1A, 1-(4-Amino-2-butyl-1H-imidazo[4,5-c]quinolin-1-yl)-2-methylpropan-2-ol] |  |  |  |  |  | body weight change [3]: rapid body weight loss followed by death |
